Patent US20100234243A1, “PTU COMPOUNDS FOR PROMOTING THE IN VITRO CULTURE OF (HIGHLY PIGMENTED) MELANOCYTES” (L'OREAL, priority 2004, published 2010)

Assays:
Type in all cases: cell-based, human
[1] = tested on: epidermis reconstructed from melanocytes of phototype VI (African); experiment: Depigmenting activity on reconstructed epidermis (luminance L* by colorimeter); conditions: 100 μM, topical, 3 applications for 5 days; FIG. 3
Description: The epidermis reconstructed from melanocytes of phototype VI (African), prepared under the conditions of Example 2, is used to screen the depigmenting activity of active agents.
The test products—arbutin at 100 μM and vitamin C phosphate at 280 μM—are applied topically to said reconstructed epidermis: 3 applications (3 μM/sample) for 5 days from the 5th day of immersion.
Vitamin C phosphate at 280 μM is also applied systemically, i.e., in the culture medium, throughout the duration of the epidermal reconstruction.
The control is the measurement of luminance of the reconstructed epidermis in the absence of test product.
On epidermis reconstructed on BPER (Episkin®), since the dermal support is translucent, it cannot be evaluated directly on the samples. The latter are therefore de-epidermalized and then digested with a solution of proteinase K. The lysates obtained are filtered on DEAE cellulose, which retains the melanin. The luminance is then measured on the filter.
The luminance L*, or lightness, of the sample is measured using a colorimeter. The darker a sample is, the weaker its luminance.

[2] = tested on: melanocytes of phototype VI (African); experiment: Determination of the non-cytotoxic concentration of PTU (cell adherence, observed under a microscope); conditions: for adherent cells (viability): primary culture without PTU 80%
Description: a) Preparation of a Primary Culture of […] Melanocytes: The melanocytes were obtained from a foreskin of a child according to the following protocol: the skin is cut into fragments of 6 mm and incubated at +4° C. overnight in the presence of 0.25% trypsin. The epidermis is then separated from the dermis in foetal calf serum. The pieces of dermis are scraped in order to recover the basal cells and the melanocytes. The epidermal fragments are then vortexed and the cells are then centrifuged at […] for 5 min. These cells (mixture of melanocytes and keratinocytes) are counted and seeded at a density of 8 to 15×10^6 cells per 75 cm^2 flask, in 18 to 20 ml of M2 medium (Promocell). The melanocytes are then purified according to the following protocol: the culture medium is changed 3 times a week and when the cells are confluent, the flasks are emptied and rinsed once with PBS-Ca^2+Mg^2+. 3 ml of trypsin-EDTA are then added per flask and the flasks are incubated at ambient temperature for 3-4 min: the melanocytes detach whereas the keratinocytes remain attached to the flask. An equivalent volume of M2 medium is added and the detached cells are counted and seeded at a density of 10^6 cells per 75 cm^2 flask, in 18 to 20 ml of M2 medium (Promocell). A primary culture of […] human melanocytes is thus obtained. The trypsinization is repeated when the melanocytes reach confluency (passage 1 et seq.). The melanocytes in the primary culture are 80% viable, i.e., 80% of the melanocytes adhere to the flask. b) Determination of the Non-Cytotoxic Concentration of PTU: Reversible Effect: Part of the primary culture of melanocytes is treated with PTU (Sigma) at the concentrations of 5 μM, 10 μM and 50 μM, at passage 2/3 or preferably from the first passage. The cytotoxicity of the effect of the PTU is evaluated by observing the cells under a microscope.

[3] = tested on: melanocytes of phototype VI (African); experiment: Pigmentation (luminance L*) and melanogenesis inhibition in melanocyte cultures
Description: The pigmentation of the melanocytes of phototype VI (African), treated with 10 μM PTU or not treated, is measured by the value L* (luminance) of the cultures given by the spectrocolorimeter (FIG. 1). […] Melanin synthesis is decreased during treatment and becomes normal again in the absence of treatment. The IC50 of PTU (i.e., the concentration of PTU for which 50% inhibition of melanogenesis is observed compared with the control on cultures of melanocytes of phototype VI (African), is evaluated from 50 μM to 100 μM.

[4] = tested on: melanocytes of phototype VI (African); experiment: Effect of PTU on proliferation of melanocytes (amount of cells obtained per passage)
[5] = tested on: melanocytes of phototype VI (African); experiment: Viability of melanocytes after freezing, thawing and re-culturing; conditions: PTU 10 μM before freezing; non-treated 5%
Description: They are then centrifuged and the pellet is resuspended in foetal calf serum+10% DMSO at a concentration of 10^6 cells/ml. The cells are frozen in cryotubes at −80° C. After 24 h, the tubes are transferred into liquid nitrogen at −196° C. For the thawing, the tubes are placed in a water bath at 37° C. and, after rapid thawing, 5 ml of M2 medium are added. The cells are centrifuged at 190 g for 5 min, the pellet is resuspended in M2 medium, and the cells are seeded into a flask and re-cultured under the conditions described in a).

[6] = tested on: melanocytes of phototype VI (African) in reconstructed epidermis; experiment: Functionality of PTU-multiplied melanocytes in reconstructed epidermis (DOPA reaction, Fontana-Masson staining); conditions: melanocytes multiplied beforehand with 5 μM or 10 μM PTU, treatment stopped
Description: The support is rinsed in the culture medium and then possibly coated with collagen type IV, fibronectin or laminin, for example. After contact at +4° C. overnight, the keratinocytes and the melanocytes of phototype VI (African) multiplied beforehand in the presence of 5 μM or 10 μM PTU, as described in Example 1, are then seeded onto said support. The culture can then be maintained immersed in a medium for keratinocytes in the presence of growth factor. After an incubation time of 3 to 5 days, the skin equivalent of phototype VI (African) undergoing formation is maintained at the air/liquid interface, for example by deposition onto a metal screen or removal of the culture medium present at the surface of an insert. The liquid then preferentially consists of the same nutritive medium as the previous one, but in which the growth factors have been reduced. The incubation then continues until a skin equivalent of phototype VI (African) is obtained. Thus, the incubation continues for a period of from 5 to 30 days, preferentially from 7 to 10 days. The reconstructed skin model of phototype VI (African) thus produced comprises two entities, the support, dermal equivalent, and the epidermal equivalent, which can be physically separated from one another. […] This enzyme is responsible for the oxidation of tyrosine to […] (DOPA) and then for the oxidation of DOPA to DOPA-quinone. […]

[7] = PTU 5 μM or 10 μM added at passage 2/3, non-treated cells multiply 2-fold
[8] = PTU 10 μM added at passage 4/5, non-treated control factor of 2

| IC50 ([3]; Homo sapiens, Melanocyte, cultures of melanocytes of phototype VI (African), read-out: IC50, concentration for 50% inhibition of melanogenesis compared with the control) | DOPA assay (tyrosinase DOPA-oxidase activity) of treated melanocytes [6] | Structure (SMILES) | increase in luminance versus control [1] | adherent cells (viability) ([2]; PTU 5 μM) | adherent cells (viability) ([2]; PTU 10 μM) | cytotoxicity on melanocytes from African individuals ([2]; PTU 50 μM, most of the cells detach) | amount of pigment in the melanocytes (luminance L*) ([3]; PTU 10 μM, effect reversible when treatment is stopped, FIG. 1) | amount of pigment excreted by the melanocytes into the medium ([3]; after PTU treatment) | multiplication of melanocytes ([4]; PTU 5 μM instead of 10 μM, treated from the first passage) | factor of stimulation of multiplication at passage 8 [4, 7] | factor of stimulation of multiplication at passage 9 [4, 7] | multiplication factor of treated cells at passage 8 [4, 8] | multiplication factor of treated cells at passage 9 [4, 8] | percentage viability during multiplication ([4]; PTU 10 μM, non-treated control 80%) | viable melanocytes after freezing, thawing and re-culturing [5] | integration of treated melanocytes into the reconstructed epidermis [6] |
| --- | --- | --- | --- | --- | --- | --- | --- | --- | --- | --- | --- | --- | --- | --- | --- | --- |
| – | – | OC[C@H]1O[C@@H](Oc2ccc(O)cc2)[C@H](O)[C@@H](O)[C@@H]1O [arbutin] | 1.8 points of L* | – | – | – | – | – | – | – | – | – | – | – | – | – |
| 50 to 100 µM | reactive | S=C(Nc1ccccc1)Nc1nccs1 [PTU, 1-phenyl-3-(2-thiazolyl)-2-thiourea] | – | 95% | 95% | cytotoxic | decreases the amount of pigment in the melanocytes | reduced | results of the same order of magnitude | 5 | 15 | 5 | 15 | 95% | 80% | integrate into the reconstructed epidermis |
